Measured values published in ChEMBL document CHEMBL1177675, “Synthesis and antiproliferative evaluation of certain iminonaphtho[2,3-b]furan derivatives” (Bioorg Med Chem, 2010).

system: SF-268; test: Cytotoxicity against human SF268 cells at 4 ug/ml after 48 hrs by sulforhodamine B assay relative to control; assay type: functional

Row | Compound | Activity [%]
1 | O=C1c2ccccc2/C(=N/OCCN2CCCCC2)c2ccoc21 | 64
2 | COc1ccc(/N=C2/c3ccccc3/C(=N/c3ccc(OC)cc3)c3occc32)cc1 | 85
3 | CN(C)CCO/N=C1/c2ccccc2C(=O)c2occc21 | 53
4 | Cc1ccc(/N=C2/c3ccccc3/C(=N/c3ccc(C)cc3)c3occc32)cc1 | 118
5 | O=C1c2ccccc2/C(=N/c2ccccc2)c2ccoc21 | 74
6 | Fc1ccc(/N=C2/c3ccccc3/C(=N/c3ccc(F)cc3)c3occc32)cc1 | 118
7 | O=C1c2ccccc2/C(=N/OCc2ccccc2)c2ccoc21 | 103
8 | O=C1c2ccccc2/C(=N/OCCN2CCOCC2)c2ccoc21 | 90
9 | O=C1c2ccccc2/C(=N/c2ccc(F)cc2)c2ccoc21 | 77
10 | O=C1c2ccccc2/C(=N/OCCN2CCCC2)c2ccoc21 | 58
11 | c1ccc(/N=C2/c3ccccc3/C(=N/c3ccccc3)c3occc32)cc1 | 102
12 | Clc1ccc(/N=C2/c3ccccc3/C(=N/c3ccc(Cl)cc3)c3occc32)cc1 | 116

system: NCI-H460; test: Cytotoxicity against human NCI-H460 cells at 4 ug/ml after 48 hrs by sulforhodamine B assay relative to control; assay type: functional

Row | Compound | Activity [%]
13 | O=C1c2ccccc2/C(=N/OCCN2CCCCC2)c2ccoc21 | 79
14 | COc1ccc(/N=C2/c3ccccc3/C(=N/c3ccc(OC)cc3)c3occc32)cc1 | 90
15 | CN(C)CCO/N=C1/c2ccccc2C(=O)c2occc21 | 51
16 | Cc1ccc(/N=C2/c3ccccc3/C(=N/c3ccc(C)cc3)c3occc32)cc1 | 104
17 | O=C1c2ccccc2/C(=N/c2ccccc2)c2ccoc21 | 65
18 | Fc1ccc(/N=C2/c3ccccc3/C(=N/c3ccc(F)cc3)c3occc32)cc1 | 103
19 | O=C1c2ccccc2/C(=N/OCc2ccccc2)c2ccoc21 | 85
20 | O=C1c2ccccc2/C(=N/OCCN2CCOCC2)c2ccoc21 | 68
21 | O=C1c2ccccc2/C(=N/c2ccc(F)cc2)c2ccoc21 | 67
22 | O=C1c2ccccc2/C(=N/OCCN2CCCC2)c2ccoc21 | 51
23 | c1ccc(/N=C2/c3ccccc3/C(=N/c3ccccc3)c3occc32)cc1 | 111
24 | Clc1ccc(/N=C2/c3ccccc3/C(=N/c3ccc(Cl)cc3)c3occc32)cc1 | 112

system: MCF7; test: Cytotoxicity against human MCF7 cells at 4 ug/ml after 48 hrs by sulforhodamine B assay relative to control; assay type: functional

Row | Compound | Activity [%]
25 | O=C1c2ccccc2/C(=N/OCCN2CCCCC2)c2ccoc21 | 87
26 | COc1ccc(/N=C2/c3ccccc3/C(=N/c3ccc(OC)cc3)c3occc32)cc1 | 86
27 | CN(C)CCO/N=C1/c2ccccc2C(=O)c2occc21 | 78
28 | Cc1ccc(/N=C2/c3ccccc3/C(=N/c3ccc(C)cc3)c3occc32)cc1 | 104
29 | O=C1c2ccccc2/C(=N/c2ccccc2)c2ccoc21 | 74
30 | Fc1ccc(/N=C2/c3ccccc3/C(=N/c3ccc(F)cc3)c3occc32)cc1 | 102
31 | O=C1c2ccccc2/C(=N/OCc2ccccc2)c2ccoc21 | 93
32 | O=C1c2ccccc2/C(=N/OCCN2CCOCC2)c2ccoc21 | 97
33 | O=C1c2ccccc2/C(=N/c2ccc(F)cc2)c2ccoc21 | 75
34 | O=C1c2ccccc2/C(=N/OCCN2CCCC2)c2ccoc21 | 72
35 | c1ccc(/N=C2/c3ccccc3/C(=N/c3ccccc3)c3occc32)cc1 | 111
36 | Clc1ccc(/N=C2/c3ccccc3/C(=N/c3ccc(Cl)cc3)c3occc32)cc1 | 109
